Experiment [1] concerns B16TK (scrambled shRNA) or B16TK (shRNA APOBEC3) tumors. Also on record: species or system C57Bl/6 mice. To be noted: mouse, in vivo.
In experiment [2] the test system is B16TK-hAPOBEC3B tumors. Also on record: species or system C57BL/6 mice. The conditions noted are these: mouse, in vivo.
In experiment [3] the test system is B16TK-hAPOBEC3B subcutaneous tumors. Also on record: species or system C57BL/6 mice. To be noted: mouse, in vivo.
Experiment [4] deals with B16TK cells. The format is cell-based, murine.

Where “and” joins values, the source holds several entries; their conditions need not be identical. Equal values may be shown once.

For the compound `Nc1nc(O)c2ncn(COC(CO)CO)c2n1` [ganciclovir], the long term survivors in experiment [1] was 0/7 and 4/7. Besides, the “tumor growth following GCV treatment” value in experiment [2] and in experiment [3] was “grew significantly more quickly” each time. Besides, in experiment [4], the “sensitivity of B16TK cells to treatment” value is listed as “sensitive”.
